Structures can show the parent of a compound that is named as a salt. Where two headings read alike, the source gives them in different places. Blank lines part the entries; values can stand above or below the molecule they belong to.
Legend:
[1] = assay type: in vivo, male Wistar rats
Procedure: (§1) Four weeks after establishing infection, five rats were sacrificed, the left tibia aseptically removed and quantitative cultures performed. The remaining animals underwent surgical débridement of the infection site with sterile saline and were arbitrarily assigned to one of five study arms for a duration of 21 days: No treatment (n=17), vancomycin HCl every 12 hours (n=17, 42 doses), BT2-peg2-vancomycin diformate every 12 hours (n=17, 42 doses), BT2-peg2-vancomycin diformate every 12 hours for 3.5 days and then every fourth day thereafter (n=16, 11 doses), and BT2-peg2-vancomycin diformate once per week (n=15, 3 doses). Vancomycin HCl was administered at 50 mg/kg and BT2-peg2-vancomycin diformate at 63.85 mg/kg (equivalent to 50 mg/kg active vancomycin); both were administered intraperitoneally. Twelve hours after completion of therapy (day 50), blood was collected via cardiac puncture for hematology and chemistry studies [performed by Charles River (Wilmington, MA)], and drug concentration studies. Rats were sacrificed with CO2. The left (infected) tibia from one animal in each group was collected for histopathology with bones placed in 10% neutralized buffered formalin (NBF), decalcified, embedded in […], prepared as longitudinal cuts and stained with hematoxylin and eosin. The left (infected) tibias from the remaining animals were weighed, cryopulverized and processed for quantitative and qualitative bacterial culture. Culture results were expressed as log10 cfu/g of bone tissue.
Kidneys from all animals were weighed, observed for abnormalities in size or color, and placed in NBF. Histological analysis was performed by Seventh Wave (Chesterfield, MO). Microscopic lesions were graded on a scale of one to four, with four being the most severe. Tubulointerstitial nephritis was characterized by multifocal non-suppurative interstitial inflammation, interstitial fibrosis, tubular epithelial degeneration, necrosis, and regeneration with frequent intra-tubular neutrophilic inflammation and cellular debris.

[2] = test system: Thirty clinical isolates of MRSA; experiment: microbe, parasite or virus in culture; assay type: cell-based, Staphylococcus aureus
Procedure: (§2) Thirty clinical isolates of MRSA were studied. […] The minimum bactericidal concentration (MBC) of vancomycin HCl and BT2-peg2-vancomycin diacetate were also determined according to CLSI guidelines (Clinical and Laboratory Standards Institute [1999]).

[3] = Plasma concentrations in infected animals by LC/MS; assay type: in vivo, male Wistar rats
Procedure: as §1
Plasma concentrations of BT2-peg2-vancomycin in infected animals were measured by liquid chromatography/mass spectrometry (LC/MS). […] The elutes (50 μl) were diluted with 450 μl 5% ACN in 0.1% formic acid and analyzed by Accela LC System (Thermo Scientific, San Jose, CA) coupled with a LTQ-Orbitrap XL mass spectrometer (Thermo Scientific, San Jose, CA). […] Elutes from the LC column were ionized by electrospray ionization and BT2-peg2-vancomycin and teicoplanin were detected by multiple reaction monitoring. […]
Plasma concentrations of vancomycin were measured by LC/MS. […]

[4] = rat, in vivo, 63.85 mg/kg; cited from earlier work
Procedure: Chemical conjugation of vancomycin to a bone-targeting moiety would theoretically yield a compound targeting delivery of vancomycin to bone, a strategy that could be useful in the treatment of bone infection. Pradama Inc. has developed a bone-targeted vancomycin, BT2-peg2-vancomycin (Figure 1) (Pierce et al. [2011]). Previous studies show concentrations of BT2-peg2-vancomycin twelve hours after a single injection (63.85 mg/kg, equivalent to 50 mg/kg vancomycin) were 27.97 and 14.18 μg/ml for plasma and bone, respectively. Concentrations of BT2-peg2-vancomycin after seven doses given every 12 h ...

[5] = Hydroxyapatite (HA) binding assay; conditions: 50 mM Tris–HCl pH 7.4, 1% DMSO
Procedure: 10^-5 M solutions of tetracycline, vancomycin HCl or BT2-peg2-vancomycin diacetate in 50 mM Tris–HCl buffer, pH 7.4, 1% DMSO were prepared. […] An HA slurry of 0.5 g HA/100 ml 50 mM Tris–HCl buffer, 1% DMSO was prepared. For each analyte, two samples were tested in triplicate. For one sample, 1 ml of 10^-5 M analyte and 100 μl 50 mM Tris–HCl buffer, 1% DMSO was pipetted into a microcentrifuge tube. For the second sample, 1 ml of 10^-5 M analyte and 100 μl of the HA slurry was pipetted into a microcentrifuge tube. The samples were mixed gently by inversion for five minutes and then centrifuged at 12,000 g for three minutes to sediment the HA. The supernatant was transferred to another microcentrifuge tube. An electronic spectral scan (ultraviolet–visible) from 220–520 nm was obtained for each analyte using a Varian Cary 300 Bio Scan (Agilent Technologies, Santa Clara, CA). The blank was 50 mM Tris–HCl buffer, 1% DMSO. The wavelength of maximum absorbance (λmax) was determined, and the extinction coefficient (ϵ) calculated using the Beer-Lambert law. Absorbance of the samples incubated with HA was measured at λmax, and the molar concentration of the analyte determined using the Beer-Lambert law and the previously calculated extinction coefficient. The fraction adsorbed to HA was calculated for each sample. […]

[6] = test system: Thirty clinical isolates of MRSA; assay type: cell-based, Staphylococcus aureus; conditions: CLSI; 30 MRSA isolates
Procedure: as §2

[7] = test system: MRSA IDRL-4293; assay type: cell-based, Staphylococcus aureus; conditions: MRSA isolate used in the experimental osteomyelitis model
Procedure: as §2
The experimental model described was performed in accordance with the guidelines of the Institutional Animal Care and Use Committee of the Mayo Clinic. Experimental osteomyelitis was established in 90 male Wistar rats using a modification of Zak’s model of experimental osteomyelitis (O'Reilly & Mader [1999]). […] Animals were anesthetized with ketamine and xylazine and the proximal third of the medial left tibia surgically exposed. A 0.5 mm hole was drilled into the medullary cavity. Fifty microliters of morrhuate sodium (a sclerosing agent) was injected into the cavity, followed by 50 μl sterile saline containing 10^7 colony forming units (cfu) of MRSA IDRL-4293. The muscle was reattached with coated vicryl sutures (Ethicon, Somerville, NJ). The skin was closed with tissue glue (Tissuemend, Butler Animal Health Supply, Dublin, OH) and wound clips (Harvard Apparatus, Holliston, MA). The wound was sprayed with a wound adhesive (Aluspray, Butler Animal Health Supply, Dublin, OH), along with a chewing repellent (Chewguard, Summit Hill Laboratories, Tinton Falls, NJ).

[8] = test system: MRSA recovered from treated or untreated animals; assay type: cell-based, Staphylococcus aureus
Procedure: as §2
Ten MRSA colonies per animal recovered from quantitative bacterial cultures were tested for susceptibility to BT2-peg2-vancomycin diformate and/or vancomycin HCl.

[9] = male, Wistar, rat, in vivo, ip, 63.85 mg/kg
[10] = broth microdilution, CLSI, 30 MRSA isolates

Compound: CN[C@H](CC(C)C)C(=O)N[C@H]1C(=O)N[C@@H](CC(N)=O)C(=O)N[C@H]2C(=O)N[C@H]3C(=O)N[C@H](C(=O)N[C@H](C(=O)NCCOCCOCC(=O)Nc4ccc(OC)c(C(N)=O)c4O)c4cc(O)cc(O)c4-c4cc3ccc4O)[C@H](O)c3ccc(c(Cl)c3)Oc3cc2cc(c3O[C@@H]2O[C@H](CO)[C@@H](O)[C@H](O)[C@H]2O[C@H]2C[C@](C)(N)[C@H](O)[C@H](C)O2)Oc2ccc(cc2Cl)[C@H]1O [BT2-peg2-vancomycin diformate]
kidney size ([1]; rat, in vivo): ~ 25.5 × 17.5 mm
kidney gross appearance (color, size) ([1]; rat, in vivo, ip): lighter in color and larger
kidney histology: tubulointerstitial nephritis grade ([1]; rat, in vivo, ip): 4

MIC at which 50% of the isolates were inhibited (MIC50) ([2]; Thirty clinical isolates of): 1 µg/mL
MIC at which 90% of the isolates were inhibited (MIC90) ([2]; Thirty clinical isolates of): 2 µg/mL
Compound: CN[C@H](CC(C)C)C(=O)N[C@H]1C(=O)N[C@@H](CC(N)=O)C(=O)N[C@H]2C(=O)N[C@H]3C(=O)N[C@H](C(=O)N[C@H](C(=O)NCCOCCOCC(=O)Nc4ccc(OC)c(C(N)=O)c4O)c4cc(O)cc(O)c4-c4cc3ccc4O)[C@H](O)c3ccc(c(Cl)c3)Oc3cc2cc(c3O[C@@H]2O[C@H](CO)[C@@H](O)[C@H](O)[C@H]2O[C@H]2C[C@](C)(N)[C@H](O)[C@H](C)O2)Oc2ccc(cc2Cl)[C@H]1O [BT2-peg2-vancomycin]
level at 12 h [3, 9]: 130000 ng/mL
level at 48 h [3, 9]: 880 ng/mL
bone concentration [4]: 14.18 µg/mL
plasma concentration [4]: 27970 ng/mL

MIC50 ([2]; Staphylococcus aureus, broth microdilution, CLSI, 30 MRSA isolates, read-out: MIC at which 50% of the isolates were inhibited (MIC50)): > 128 µg/mL
Compound: Cc1onc(-c2ccccc2)c1C(=O)N[C@@H]1C(=O)N2[C@@H]1SC(C)(C)[C@@H]2C(=O)O [oxacillin]

Compound: CN(C)[C@@H]1C(O)=C(C(N)=O)C(=O)[C@@]2(O)C(O)=C3C(=O)c4c(O)cccc4[C@@](C)(O)[C@H]3C[C@@H]12 [tetracycline]
fraction bound to HA ([5]; at 10^-5 M, reference analyte): approximately 50%

Compound: CN[C@H](CC(C)C)C(=O)N[C@H]1C(=O)N[C@@H](CC(N)=O)C(=O)N[C@H]2C(=O)N[C@H]3C(=O)N[C@H](C(=O)N[C@H](C(=O)O)c4cc(O)cc(O)c4-c4cc3ccc4O)[C@H](O)c3ccc(c(Cl)c3)Oc3cc2cc(c3O[C@@H]2O[C@H](CO)[C@@H](O)[C@H](O)[C@H]2O[C@H]2C[C@](C)(N)[C@H](O)[C@H](C)O2)Oc2ccc(cc2Cl)[C@H]1O [vancomycin HCl]
MIC range [2, 10]: 0.5 to 2 µg/mL
MBC at which 50% of isolates were killed [6]: 2 µg/mL
MBC range [6]: 0.5 to 64 µg/mL
MBC [7]: 2 µg/mL
MIC [7]: 2 µg/mL
kidney gross appearance (color, size) ([1]; every 12 hours for 21 days ip): deep maroon color and size consistent with body weight
kidney histology: tubulointerstitial nephritis grade ([1]; every 12 hours for 21 days ip, lesions graded one to four, four most severe): did not exhibit microscopic abnormalities
Kidney weight, median (range) ([1]; twice daily for 21 days ip, vancomycin HCl 50 mg/kg, BTV 63.85 mg/kg, no treatment 1.4): 1.4 (1.1-1.7) grams
BUN, median (range) ([1]; twice daily for 21 days ip, vancomycin HCl 50 mg/kg, BTV 63.85 mg/kg, normal 9–30): 18.5 (15–21) mg/dl
Creatinine, median (range) ([1]; twice daily for 21 days ip, vancomycin HCl 50 mg/kg, BTV 63.85 mg/kg, normal range 0.4 to 0.7): 0.5 (0.4-0.6) mg/dl
Albumin, median (range) ([1]; twice daily for 21 days ip, vancomycin HCl 50 mg/kg, BTV 63.85 mg/kg, normal range 3.2 to 4.5): 3.4 (3.1-3.6) g/dl

Compound: CN[C@H](CC(C)C)C(=O)N[C@H]1C(=O)N[C@@H](CC(N)=O)C(=O)N[C@H]2C(=O)N[C@H]3C(=O)N[C@H](C(=O)N[C@H](C(=O)O)c4cc(O)cc(O)c4-c4cc3ccc4O)[C@H](O)c3ccc(c(Cl)c3)Oc3cc2cc(c3O[C@@H]2O[C@H](CO)[C@@H](O)[C@H](O)[C@H]2O[C@H]2C[C@](C)(N)[C@H](O)[C@H](C)O2)Oc2ccc(cc2Cl)[C@H]1O [vancomycin]
HA binding index ([5]; 10^-5 M analyte, HA slurry, mixed 5 min, UV–vis at λmax, triplicate, % bound/% tetracycline bound × 100): 0
MIC at which 50% of the isolates were inhibited (MIC50) [2, 10]: 1 µg/mL
MIC at which 90% of the isolates were inhibited (MIC90) [2, 10]: 2 µg/mL
MBC at which 90% of isolates were killed (MBC90) [6]: 16 µg/mL
increase in MIC of recovered isolates ([8]; all treatment groups): No increase in vancomycin or BT2-peg2-vancomycin MIC of more than one doubling dilution
MIC of recovered MRSA ([8]; isolates from animals treated with BT2-peg2-vancomycin diformate once weekly): 1 to 2 µg/mL
MIC of recovered MRSA ([8]; isolates from animals treated with BT2-peg2-vancomycin diformate twice daily): 1 to 4 µg/mL
MIC of recovered MRSA ([8]; isolates from animals treated with BT2-peg2-vancomycin diformate twice daily for 3.5 days then once every fourth day): 1 to 2 µg/mL
MIC of recovered MRSA ([8]; isolates recovered from the untreated group): 1 to 2 µg/mL
MIC of recovered MRSA ([8]; isolates recovered from vancomycin HCl-treated animals): 2 to 4 µg/mL
Plasma concentration, median ([3]; 12 h after last dose, twice daily for 21 days ip, vancomycin HCl 50 mg/kg (n=16), BTV 63.85 mg/kg (n=13), LC/MS): 710 ng/mL

Reference: PMC4320154, “Treatment of Methicillin-resistant Staphylococcus aureus experimental Osteomyelitis with bone-targeted Vancomycin” (SpringerPlus, 2013)
